These results are taken from patent publication US20260083126A1, “ANTIMICROBIAL COMPOSITIONS” (AHV International B.V., priority 2022, published 2026).

Structures are written as SMILES. Entries after “also recorded” stand apart in the source; their conditions may differ.

The test system of one data set is Caco-2 cell line. Nature of the data set: MTT cytotoxicity test. In kind it is cell-based. The settings on record: 24 h, 7.8 μM to 1 mM, emulsified with Tween-80/DMSO. The protocol: Scope. As standard tests cytotoxicity is measured on Caco-2 and HepG2 cell lines. Cytotoxicity of mentioned cell lines was determined by measuring the amount of converted MTT (3-(4,5-dimethylthiazol-2-yl)-2,5-diphenyltetrazolium bromide) by a mitochondrial dehydrogenase after exposure of various concentrations of the antimicrobial compounds. In living cells the dehydrogenase converts the soluble MTT into water insoluble purple formazan crystals that can not pass the cell membrane. The higher the metabolic activity of the cell, the more purple crystals are formed, the lower the cytotoxicity of the antimicrobial compound. Experimental design. The Caco-2 cell line as colorectal adenocarcinoma cells and HepG2 (derived from human liver) were used for the current experiments and were obtained from the ATCC. The intestinal Caco-2 cell line was cultured in 75-cm^2 culture flasks. Minimum Essential Medium (MEM) (Catalog Number(s) 31095029, ThermoFischer Scientific), supplemented with 10% (v/v) inactivated fetal calf serum (FCS) (Gibco), 1% (v/v) nonessential amino acids (Gibco), 1% sodium pyruvate (Gibco) and penicillin (100 U/ml)/streptomycin (100 μg/ml.) was utilized as medium for the growing cells. The cells were preserved in an incubator to provide them with the optimum moisture and temperature (humidified atmosphere of 95% air and 5% CO2 at 37° C. for 72 hours). The Caco-2 cells were seeded in flat bottom 96-well plates for performing the experiments. The cells were grown on flat bottom 96-well plates to the appropriate density to run the experiments. The cells were exposed to increasing concentrations of emulsified test compound (8 concentration, ranging from 7.8 μM to 1 mM) in standard culture medium (Catalogue 31331028, ThemoFischer Scientific) for each cell line. It should be noted that all the experiments were conducted in FBS (Catalog A3840101, ThermoFischer Scientific) and antibiotic free medium. The concentration of Tween-80 and DMSO that is present in the assay to emulsify the antimicrobial compound was in the range from 0,007% to 1%. The cells were incubated for 24 h with emulsified test compound and the assay was performed based on the standard protocol. By the end of the experiment the medium (cell supernatants) was removed and the lysis buffer (0.04 M hydrochloric acid, in propan-2-ol) was added to each well to solubilize the purple formazan crystals. As the final step, the absorbance was recorded by a multi-well reader at 595 nm. […] The results from all experiments were expressed as mean #standard error of the mean (SEM) conducted in triplicate (three wells/condition) of three independent experiments. Differences between results were statistically evaluated using One-way ANOVA with Bonferroni post-hoc test.
(Tetrazolium assays rely on reduction of a dye to a coloured formazan, in cell work by metabolically active cells.)
Take `Clc1ccc(SSc2ccc(Cl)cc2)cc1` [Bis (4-chlorophenyl) disulfide, Bis(4-chlorophenyl) disulfide]: the “cytotoxic effect on Caco-2 cells (MTT)” value is recorded as “cytotoxic effects”.

In the case of `O=S(=O)(Sc1ccc(Cl)cc1)c1ccc(Cl)cc1` [Bis (4-chlorophenyl) thiosulfonate, Bis(4-chlorophenyl) thiosulfonate], the “cytotoxic effect on Caco-2 cells (MTT)” value is listed as “cytotoxic effects”. Still for that read-out and setting: as for `Fc1ccc(SSc2ccc(F)cc2)cc1` [Bis (4-fluorophenyl) disulfide, Bis(4-fluorophenyl) disulfide], the entry is “cytotoxic effects”. Same read-out and setting: as for `CC(C)SS(=O)(=O)C(C)C` [Di-isopropyl thiosulfonate], the entry is “cytotoxic effects; also recorded: cytotoxicity is lowest”.

The test system of a further data set is Staphylococcus epidermis ATCC 35984 biofilm. Briefly: MBIC assay (crystal violet). In kind it is cell-based, Staphylococcus epidermidis. The settings on record: 48 h at 37° C., absorbance 540 nm. The protocol:
The exact weighed amount was noted and the volume of solvent to reach a 80 mM dilution calculated. Half of the volume was added first, by adding Tween 80 and let stand for 5 minutes. In a second step, the other half of the volume DMSO was added and resuspended to help the dilution process. The closed tube was inverted 5-10 times and then vortexed very thoroughly for at least 30 seconds. If after this procedure crystals were still visible, the tube was placed in a shaker at 37° C. at 150 rpm for at least 30 minutes (it is indicated if the dissolution period was longer than 2 h). […] In case of Bis(4-Chlorophenyl) thiosulfonate, a lower concentrated stock solution of 2 mM needed to be prepared. For that, the required amount of compound was weighed in and 2% v/v Tween80 and 2% v/v DMSO of the end volume of the stock solution was added to the substance. This mix was heated in a water bath set to 40° C. and occasionally shaken. When the whole amount of the substance reached dissolution, the volume was filled up with growth medium until the end volume. This 2 mM stock solution of Bis(4-Chlorophenyl) thiosulfonate was used in the MIC plate and diluted two-fold, resulting in a testing range of Bis(4-Chlorophenyl) thiosulfonate from 1 mM to 0.002 mM.
Frozen aliquots of Staphylococcus epidermis ATCC 35984 and Pseudomonas aeruginosa ATCC 27853 were used to inoculate a tryptic soy agar (TSA) plate and were incubated overnight at 37° C. After incubation 3-5 well-isolated colonies with the same morphology were selected from the TSA plate and resuspended in 2 ml 0.9% saline solution with 3-6 glass beads and vortexed. The optical density of the bacterial suspension was measured at 600 nm (OD600) with a spectrophotometer (Evolution™ 201/220 UV-Visible Spectrophotometer, Thermo Fisher Scientific) and diluted to an OD600 of 0.2. The MBIC assay was performed in a 96-microtiter plate. […] The solution was resuspended and transferred to a flat-bottom 96-well plate and the absorbance measured at 540 nm with the spectrophotometer. […]
For `Clc1ccc(SSc2ccc(Cl)cc2)cc1` [Bis (4-chlorophenyl) disulfide, Bis(4-chlorophenyl) disulfide], the “S. epidermidis MBIC90” value is given as above 4 mM. The same measure, in the same setting: with `CCCSSCCC` [Di-n-propyl disulfide, reference compound] the figure was 4 mM; with `CCCSS(=O)(=O)CCC` [Di-n-propyl thiosulfonate, reference compound], 2 mM.
